Where “and” joins values, the source holds several entries; their conditions need not be identical. Equal values may be shown once. Results filed as inconclusive are left out.
Tested on: nude mice, HT29 intrarenal xenograft, tumor weight T/C
Assay: NCI In Vivo Anticancer Drug Screen. Data for tumor model HT29;CX-1 Human Adenocarcinoma (MER+) (intrarenal inoculation) in NU/NU Swiss (nude) mice
Details: endpoint: mean tumor weight change, higher = larger tumour
Summary of the method: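 Tumor-bearing mice received test compound or vehicle, and tumor size or survival was recorded. Values are the treated-group measurement divided by the vehicle-treated control measurement.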

[1] = dose: 200.0 mg/kg/injection, schedule: Q04DX004 (sc), vehicle: water
[2] = dose: 400.0 mg/kg/injection, schedule: Q04DX004 (sc), vehicle: water
[3] = dose: 400.0 mg/kg/injection, schedule: Q04DX004 (sc), vehicle: saline
[4] = dose: 75.0 mg/kg/injection, schedule: Q04DX004 (sc), vehicle: Klucel (hydroxypropylcellulose) (HPC)
[5] = dose: 200.0 mg/kg/injection, schedule: Q04DX004 (sc), vehicle: Klucel (hydroxypropylcellulose) (HPC)
[6] = dose: 400.0 mg/kg/injection, schedule: Q04DX004 (sc), vehicle: Klucel (hydroxypropylcellulose) (HPC)
[7] = dose: 50.0 mg/kg/injection, schedule: Q04DX004 (sc), vehicle: Klucel (hydroxypropylcellulose) (HPC)
[8] = dose: 100.0 mg/kg/injection, schedule: Q04DX004 (sc), vehicle: Klucel (hydroxypropylcellulose) (HPC)
[9] = dose: 12.5 mg/kg/injection, schedule: Q04DX004 (sc), vehicle: saline
[10] = dose: 25.0 mg/kg/injection, schedule: Q04DX004 (sc), vehicle: saline
[11] = dose: 50.0 mg/kg/injection, schedule: Q04DX004 (sc), vehicle: saline
[12] = dose: 200.0 mg/kg/injection, schedule: Q01DX010 (sc), vehicle: saline with Tween-80
[13] = dose: 100.0 mg/kg/injection, schedule: Q01DX010 (sc), vehicle: saline with Tween-80
[14] = dose: 400.0 mg/kg/injection, schedule: Q01DX010 (sc), vehicle: saline with Tween-80
[15] = dose: 300.0 mg/kg/injection, schedule: Q04DX004 (sc), vehicle: saline with Tween-80
[16] = dose: 600.0 mg/kg/injection, schedule: Q04DX004 (sc), vehicle: saline with Tween-80

C=C1C(C)C2C(Cc3ccccc3)NC(=O)C23C(OC(C)=O)/C=C/C(C)(O)CC(C)C/C=C/C3C1O (configuration not stated)
T/C (dose: 3.13 mg/kg/injection, schedule: Q04DX004 (sc), vehicle: distilled water + Tween-80): 42 % of control
T/C (dose: 6.25 mg/kg/injection, schedule: Q04DX004 (sc), vehicle: distilled water + Tween-80): 124 % of control
T/C (dose: 12.5 mg/kg/injection, schedule: Q04DX004 (sc), vehicle: distilled water + Tween-80): 87 % of control
T/C (dose: 25.0 mg/kg/injection, schedule: Q04DX004 (sc), vehicle: distilled water + Tween-80): 63 % of control

Oc1cc2c3c(c1)c1cc4c(cc1c[n+]3CC2)OCO4
T/C (dose: 100.0 mg/kg/injection, schedule: Q04DX004 (sc), vehicle: water): 53 % of control
T/C [1]: 61 % of control
T/C [2]: 73 % of control

CC1=C(/C=C/C(C)=C/C=C/C(C)=C/CO)C(C)(C)CCC1
T/C (dose: 100.0 mg/kg/injection, schedule: Q04DX004 (sc), vehicle: saline with Tween-80): 82 % of control
T/C (dose: 200.0 mg/kg/injection, schedule: Q04DX004 (sc), vehicle: saline with Tween-80): 94 % of control
T/C (dose: 400.0 mg/kg/injection, schedule: Q04DX004 (sc), vehicle: saline with Tween-80): 96 % of control
T/C (dose: 800.0 mg/kg/injection, schedule: Q04DX004 (sc), vehicle: saline with Tween-80): 121 % of control

Cc1cn(C2CC(O)C(CO)O2)c(=O)[nH]c1=O (configuration not stated)
T/C [3]: 113 % of control
T/C (dose: 800.0 mg/kg/injection, schedule: Q04DX004 (sc), vehicle: saline): 94 % of control
T/C (dose: 1600.0 mg/kg/injection, schedule: Q04DX004 (sc), vehicle: saline): 102 % of control
T/C (dose: 3200.0 mg/kg/injection, schedule: Q04DX004 (sc), vehicle: saline): 81 % of control

CC(=O)OCC(OC(C)=O)C(Cl)CCl (configuration not stated)
T/C (dose: 31.25 mg/kg/injection, schedule: Q04DX004 (ip), vehicle: saline): 114 % of control
T/C (dose: 62.5 mg/kg/injection, schedule: Q04DX004 (ip), vehicle: saline): 121 % of control
T/C (dose: 125.0 mg/kg/injection, schedule: Q04DX004 (ip), vehicle: saline): 84 % of control
T/C (dose: 250.0 mg/kg/injection, schedule: Q04DX004 (ip), vehicle: saline): 100 % of control
T/C (dose: 500.0 mg/kg/injection, schedule: Q04DX004 (ip), vehicle: saline): 115 % of control

Nc1ncnc2c1nnn2C1OC(CO)C(O)C1O (configuration not stated)
T/C [4]: 41 % of control

CSc1nc(=O)[nH]nc1SCc1ccccc1
T/C [5]: 76 % of control
T/C [6]: 56 % of control
T/C (dose: 800.0 mg/kg/injection, schedule: Q04DX004 (sc), vehicle: Klucel (hydroxypropylcellulose) (HPC)): 90 % of control

Cc1cc(N2C(=O)CCSC2=S)ccc1Cl
T/C [4]: 37 % of control
T/C (dose: 150.0 mg/kg/injection, schedule: Q04DX004 (sc), vehicle: Klucel (hydroxypropylcellulose) (HPC)): 55 % of control
T/C (dose: 300.0 mg/kg/injection, schedule: Q04DX004 (sc), vehicle: Klucel (hydroxypropylcellulose) (HPC)): 30 % of control

CSc1cc(C)[o+]c(C)c1
T/C [7]: 107 % of control
T/C [8]: 57 % of control
T/C [5]: 41 % of control

OCC1OC(n2cnc3cncnc32)C(O)C1O (configuration not stated)
T/C [9]: 65 % of control
T/C [10]: 77 % of control
T/C [11]: 66 % of control

O=c1[nH]c(=O)n(C2CC(O)C(CO)O2)cc1I (configuration not stated)
T/C [12]: 91 % of control

Nc1ccc2nc3ccc(N)cc3[n+](-c3ccccc3)c2c1
T/C (dose: 9.0 mg/kg/injection, schedule: Q04DX004 (sc), vehicle: saline): 80 % of control
T/C (dose: 18.0 mg/kg/injection, schedule: Q04DX004 (sc), vehicle: saline): 62 % of control
T/C (dose: 36.0 mg/kg/injection, schedule: Q04DX004 (sc), vehicle: saline): 96 % of control
T/C (dose: 72.0 mg/kg/injection, schedule: Q04DX004 (sc), vehicle: saline): 52 % of control

Cc1cn(C2CC3[O][Sn]([c]4ccccc4)([c]4ccccc4)[O]CC3O2)c(=O)[nH]c1=O (configuration not stated)
T/C (dose: 25.0 mg/kg/injection, schedule: Q01DX010 (sc), vehicle: saline): 60 % of control
T/C (dose: 50.0 mg/kg/injection, schedule: Q01DX010 (sc), vehicle: saline): 60 % of control
T/C (dose: 100.0 mg/kg/injection, schedule: Q01DX010 (sc), vehicle: saline): 79 % of control
T/C (dose: 200.0 mg/kg/injection, schedule: Q01DX010 (sc), vehicle: saline): 55 % of control
T/C (dose: 600.0 mg/kg/injection, schedule: Q04DX004 (sc), vehicle: saline): 94 % of control
T/C (dose: 1200.0 mg/kg/injection, schedule: Q04DX004 (sc), vehicle: saline): 95 % of control
T/C (dose: 2400.0 mg/kg/injection, schedule: Q04DX004 (sc), vehicle: saline): 94 % of control

CN1C(=O)NC(c2ccc(Cl)cc2)(c2ccc(Cl)cc2)C1=O
T/C (dose: 50.0 mg/kg/injection, schedule: Q01DX010 (sc), vehicle: saline with Tween-80): 97 % of control
T/C [13]: 109 % of control
T/C [14]: 43 % of control

CCCCCC(O)C1C(=O)OC(C)C(O)/C=C/C=C/C=C/C=C\C=C(\C)C(O)CC(O)CC(O)CC(O)CC(O)CC(O)CC1O (configuration not stated)
T/C (dose: 37.5 mg/kg/injection, schedule: Q04DX004 (sc), vehicle: distilled water + alcohol): 73 % of control
T/C (dose: 75.0 mg/kg/injection, schedule: Q04DX004 (sc), vehicle: distilled water + alcohol): 110 % of control
T/C (dose: 150.0 mg/kg/injection, schedule: Q04DX004 (sc), vehicle: distilled water + alcohol): 107 % of control

CN(C)/N=N/c1nc[nH]c1C(N)=O
T/C (dose: 100.0 mg/kg/injection, schedule: Q01DX010 (sc), vehicle: Klucel (hydroxypropylcellulose) (HPC)): 90 % of control and 109 % of control
T/C (dose: 400.0 mg/kg/injection, schedule: Q01DX010 (sc), vehicle: Klucel (hydroxypropylcellulose) (HPC)): 77 % of control

CCC(=O)Sc1ccccc1C(=O)Nc1ccc(Cl)cc1
T/C [15]: 122 % of control
T/C [16]: 93 % of control
T/C (dose: 1200.0 mg/kg/injection, schedule: Q04DX004 (sc), vehicle: saline with Tween-80): 103 % of control
T/C (dose: 2400.0 mg/kg/injection, schedule: Q04DX004 (sc), vehicle: saline with Tween-80): 91 % of control

O=C(NO)c1cc(O)c(O)c(O)c1
T/C [1]: 83 % of control
T/C [2]: 60 % of control
T/C (dose: 800.0 mg/kg/injection, schedule: Q04DX004 (sc), vehicle: water): 56 % of control
T/C (dose: 1600.0 mg/kg/injection, schedule: Q04DX004 (sc), vehicle: water): 71 % of control

CC(=O)[C@]1(O)Cc2c(O)c3c(c(O)c2[C@@H](OC2CC(N)C(O)C(C)O2)C1)C(=O)c1c(O)cccc1C3=O (some centres not stated)
T/C (dose: 0.63 mg/kg/injection, schedule: Q04DX004 (sc), vehicle: saline): 50 % of control
T/C (dose: 1.25 mg/kg/injection, schedule: Q04DX004 (sc), vehicle: saline): 68 % of control

CCCCCCCCCCCCCCC/C([O-])=N/[N+](C)(C)CC(C)O (configuration not stated)
T/C [7]: 106 % of control
T/C [8]: 103 % of control
T/C [5]: 86 % of control
T/C [6]: 110 % of control

CNc1cccnc1/C=N/NC(N)=S
T/C (dose: 75.0 mg/kg/injection, schedule: Q04DX004 (sc), vehicle: saline with Tween-80): 83 % of control
T/C (dose: 150.0 mg/kg/injection, schedule: Q04DX004 (sc), vehicle: saline with Tween-80): 110 % of control
T/C [15]: 33 % of control
T/C [16]: 58 % of control

O=C(O)CSc1nc(-c2ccccc2)c(-c2ccccc2)n1-c1ccccn1
T/C (dose: 250.0 mg/kg/injection, schedule: Q04DX004 (sc), vehicle: water): 55 % of control

O=C(CO)c1ccc([N+](=O)[O-])cc1
T/C [13]: 63 % of control
T/C [12]: 70 % of control
T/C [14]: 122 % of control
T/C (dose: 800.0 mg/kg/injection, schedule: Q01DX010 (sc), vehicle: saline with Tween-80): 75 % of control

Brc1c(NC2=NCCN2)ccc2nccnc12
T/C [9]: 113 % of control
T/C [10]: 92 % of control
T/C [11]: 52 % of control
T/C (dose: 100.0 mg/kg/injection, schedule: Q04DX004 (sc), vehicle: saline): 93 % of control
T/C (dose: 200.0 mg/kg/injection, schedule: Q04DX004 (sc), vehicle: saline): 91 % of control
T/C [3]: 79 % of control
